Measurements as given in patent US20140343001A1, “INDOLE DERIVATIVES INHIBITORS OF ENZYME LACTATE DEHYDROGENASE (LDH)” (Universitá di Pisa, priority 2011, published 2014).

How the values were obtained:
hLDH5 (LDH-A) = target: T1, hLDH5 (LDH-A) (Homo sapiens, UniProt P00338); assay: Enzyme inhibition of human lactate dehydrogenase isoform 5; type: biochemical; settings: ranges of values, pH 7.4; for Ki: 37° C., read-out: inhibitory activity against hLDH5 (Ki); for IC50: room temperature, read-out: inhibitory activity against hLDH5 (IC50)
T1 construct: purchased LEEBIO (USA)
Method: The compounds described in the examples were evaluated in enzymatic assays to assess its inhibitory properties against two human isoforms of lactate dehydrogenase, hLDH5 containing solely the subunit LDH-A (LEEBIO—USA), and the hLDH1 containing only the LDH subunits-B (Sigma Aldrich, USA), in order to verify the selectivity of these compounds.
(for Ki measurements). Such assays were conducted in cells containing 200 μL of a solution comprising the reagents dissolved in phosphate buffer (KH2PO4 and K2HPO4) at pH 7.4.
IC50 values were calculated as described below. […] Seven different concentrations (in duplicate for each concentration) of compound were used to generate a concentration-response curve. […] Compound solutions were dispensed in 96-well plates (8 μL), then substrate and cofactor dissolved in buffer (152 μl) and enzyme solution (40 μl) were finally added. Dilution of the enzyme stock solution was made to allow a 10% consumption of the cofactor after 15 min. The eventual background fluorescence of the tested compounds or quenching of the NADH fluorescence by the tested compounds was subtracted. In addition to the compound test wells, each plate contained maximum and minimum controls. Assay plates were incubated at room temperature for 15 min and the final measurements were performed using Victor X3 Microplates reader (PerkinElmer®) at a fluorescence emission wavelength of 460 nm (excitation at 340 nm). IC50 were generated using the curve-fitting tool of GraphPad Prism].
The resulting data of enzymatic kinetic (the constants of Michaelis-Menten) were determined by analysis of non-linear regression.

H1975 = assay: Inhibition of tumor cell growth method (b), CellTiter-Glo; type: cell-based; settings: Homo sapiens, NCI-H1975, H1975, 72 h
Source text: (§1) CellTiter-Glo® Luminescent Cell Viability Assay (Promega) is a homogeneous method of determining the number of viable cells in culture based on quantitation of the present ATP, which indicates the presence of metabolically active cells. The homogeneous assay procedure involves addition of a single reagent (CellTiter-Glo® Reagent) directly to the cells, which leads to cell lysis and generation of a luminescent signal proportional to the amount of the ATP and the number of cells present in culture. The assay relies on the properties of a proprietary thermostable luciferase (Ultra-Glo® recombinant luciferase), which generates a luminescent signal.
(§2) After 72 h, a volume of CellTiter-Glo® Reagent equal to the volume of cell culture medium was added. The content was mixed for 2 min to induce cell lysis. The luminescence was recorded after further 10 min at RT in order to obtain a stable luminescent signal.
(§3) The IC50 was calculated using GraphPad Software.

A549 cells = assay: as above; type: cell-based; settings: Homo sapiens, A549, 72 h
Source text: as §1, §2, §3

HeLa cells = assay: Determination of cellular production of lactate (GC/MS); type: cell-based; settings: 8 hours, concentrations from 50 to 200 μM, comparable or superior to 2-DeoxGlu at 10 mM

Ki (hLDH5 (LDH-A)) [µM] | IC50 (H1975) [µM] | IC50 (A549 cells) [µM] | IC50 (hLDH5 (LDH-A)) [nM] | SMILES | reduction of cellular production of lactate (HeLa cells)
1 to 10 | ≤ 31 | ≤ 31 |  | CCOC(=O)c1cc2c(C(F)(F)F)cc(-c3ccc(Cl)cc3Cl)cc2n1O [Example 9, ethyl 6-(2,4-dichloropheyl)-1-hydroxy-4-(trifluoromethyl)-1H-indole-2-carboxylate] | reduce effectively cellular production of lactate
1 to 10 | ≤ 31 | ≤ 31 |  | COC(=O)c1cc2c(C(F)(F)F)cc(-c3cccc(OC(F)(F)F)c3)cc2n1O [Example 19, methyl 1-hydroxy-4-(trifluoromethyl)-6-(3-(trifluoromethoxy)phenyl)-1H-indole-2-carboxylate] | 
1 to 10 |  | ≤ 31 |  | O=C(O)c1cc2c(C(F)(F)F)cc(-c3cccc(OC(F)(F)F)c3)cc2n1O [Example 25, 1-hydroxy-4-(trifluoromethyl)-6-(3-(trifluoromethoxy)phenyl)-1H-indole-2-carboxylic acid] | 
 |  |  | 50000 to 500000 | CC(C)OC(=O)c1cc2c(C(F)(F)F)cc(-c3ccccc3)cc2n1O[C@@H]1O[C@H](CO)[C@@H](O)[C@H](O)[C@H]1O [Example 31, isopropyl 1-(β-D-glucopyranosyl)oxy-6-phenyl-4-(trifluoromethyl)-1H-indole-2-carboxylate] | reduce effectively cellular production of lactate
 |  |  | 10 to 1000 | CCCCOC(=O)c1cc2c(C(F)(F)F)cc(-c3ccc(Cl)cc3Cl)cc2n1O [Example 33, butyl 6-(2,4-dichlorophenyl)-1-hydroxy-4-(trifluoromethyl)-1H-indole-2-carboxylate] | reduce effectively cellular production of lactate
5 to 25 | ≤ 31 | ≤ 31 |  | COC(=O)c1cc2c(C(F)(F)F)cc(-c3ccccc3OC(F)(F)F)cc2n1O [Example 34, methyl 1-hydroxy-6-(2-(trifluoromethoxy)phenyl)-4-(trifluoromethyl)-1H-indole-2-carboxylate] | 
5 to 25 | ≤ 31 | ≤ 31 |  | O=C(O)c1cc2c(C(F)(F)F)cc(-c3ccccc3OC(F)(F)F)cc2n1O [Example 35, 1-hydroxy-6-(2-(trifluoromethoxy)phenyl)-4-(trifluoromethyl)-1H-indole-2-carboxylic acid] | 
1 to 10 | ≤ 31 | ≤ 31 |  | COC(=O)c1cc2c(C(F)(F)F)cc(-c3cccc(Cl)c3Cl)cc2n1O [Example 36, methyl 6-(2,3-dichlorophenyl)-1-hydroxy-4-(trifluoromethyl)-1H-indole-2-carboxylate] | 
5 to 25 | ≤ 31 | ≤ 31 |  | COC(=O)c1cc2c(C(F)(F)F)cc(-c3cc(Cl)ccc3Cl)cc2n1O [Example 38, methyl 6-(2,5-dichlorophenyl)-1-hydroxy-4-(trifluoromethyl)-1H-indole-2-carboxylate] | 
 |  |  |  | COC(=O)c1cc2c(C(F)(F)F)cc(-c3ccccc3)cc2n1O[C@@H]1O[C@H](CO)[C@H](O)[C@@H](O)[C@H]1O [Example 40, methyl 1-(β-d-gulopyranosyl)oxy-6-phenyl-4-(trifluoromethyl)-1H-indole-2-carboxylate] | reduce effectively cellular production of lactate
 |  |  |  | COC(=O)c1cc2c(C(F)(F)F)cc(-c3ccccc3)cc2n1O[C@H]1O[C@H](CO)[C@@H](O)[C@H](O)[C@@H]1O [Example 41, methyl 1-(α-d-mannopyranosyl)oxy-6-phenyl-4-(trifluoromethyl)-1H-indole-2-carboxylate] | reduce effectively cellular production of lactate
1 to 10 | ≤ 31 | ≤ 31 |  | COC(=O)c1cc2c(C(F)(F)F)cc(-c3cc(Cl)cc(Cl)c3)cc2n1O [Example 42, methyl 6-(3,5-dichlorophenyl)-1-hydroxy-4-(trifluoromethyl)-1H-indole-2-carboxylate] | 
1 to 10 |  | ≤ 31 |  | O=C(O)c1cc2c(C(F)(F)F)cc(-c3cc(Cl)cc(Cl)c3)cc2n1O [Example 43, 6-(3,5-dichlorophenyl)-1-hydroxy-4-(trifluoromethyl)-1H-indole-2-carboxylic acid] | 
0.5 to 5 | ≤ 31 | ≤ 31 |  | O=C(OCc1ccccc1)c1cc2c(C(F)(F)F)cc(-c3ccccc3)cc2n1O [Example 48, benzyl 1-hydroxy-6-phenyl-4-(trifluoromethyl)-1H-indole-2-carboxylate] | 
10 to 100 |  |  |  | COC(=O)c1cc2c(F)cc(-c3ccccc3)cc2n1O [Example 51, methyl 4-fluoro-1-hydroxy-6-phenyl-1H-indole-2-carboxylate] | 
5 to 25 |  |  |  | O=C(O)c1cc2c(F)cc(-c3ccccc3)cc2n1O [Example 52, 4-fluoro-1-hydroxy-6-phenyl-1H-indole-2-carboxylic acid] | 
5 to 25 | ≤ 31 | ≤ 31 |  | COC(=O)c1cc2c(F)cc(-c3ccc(Cl)cc3Cl)cc2n1O [Example 53, methyl 6-(2,4-dichlorophenyl)-4-fluoro-1-hydroxy-1H-indole-2-carboxylate] | 
5 to 25 |  |  |  | O=C(O)c1cc2c(F)cc(-c3ccc(Cl)cc3Cl)cc2n1O [Example 54, 6-(2,4-dichlorophenyl)-4-fluoro-1-hydroxy-1H-indole-2-carboxylic acid] | 
 |  |  | 10 to 1000 | O=C(OCc1ccccc1)c1cc2c(C(F)(F)F)cc(-c3ccc(Cl)cc3Cl)cc2n1O [Example 55, benzyl 6-(2,4-dichlorophenyl)-1-hydroxy-4-(trifluoromethyl)-1H-indole-2-carboxylate] | 
 |  |  | 10 to 1000 | O=C(OCc1ccc(-c2ccccc2)cc1)c1cc2c(C(F)(F)F)cc(-c3ccc(Cl)cc3Cl)cc2n1O [Example 56, [1,1′-biphenyl]-4-ylmethyl 6-(2,4-dichlorophenyl)-1-hydroxy-4-(trifluoromethyl)-1H-indole-2-carboxylate] | 
 |  |  | > 100000 | CN1CCC(OC(=O)c2cc3c(C(F)(F)F)cc(-c4ccccc4)cc3n2O)CC1 [Example 57, 1-methylpiperidin-4-yl 1-hydroxy-6-phenyl-4-(trifluoromethyl)-1H-indole-2-carboxylate] | 
 |  |  | > 100000 | CN1CCC(OC(=O)c2cc3c(C(F)(F)F)cc(-c4ccc(Cl)cc4Cl)cc3n2O)CC1 [Example 58, 1-methylpiperidin-4-yl 6-(2,4-dichlorophenyl)-1-hydroxy-4-(trifluoromethyl)-1H-indole-2-carboxylate] | 
 |  |  | > 100000 | O=C(OC1CCN(Cc2ccccc2)CC1)c1cc2c(C(F)(F)F)cc(-c3ccc(Cl)cc3Cl)cc2n1O [Example 59, 1-benzylpiperidin-4-yl 6-(2,4-dichlorophenyl)-1-hydroxy-4-(trifluoromethyl)-1H-indole-2-carboxylate] | 
 |  |  | 10 to 1000 | COc1ccc(COC(=O)c2cc3c(C(F)(F)F)cc(-c4ccc(Cl)cc4Cl)cc3n2O)cc1 [Example 60, 4-methoxybenzyl 6-(2,4-dichlorophenyl)-1-hydroxy-4-(trifluoromethyl)-1H-indole-2-carboxylate] | 
 |  |  | 10 to 1000 | O=C(OCc1ccc([N+](=O)[O-])cc1)c1cc2c(C(F)(F)F)cc(-c3ccc(Cl)cc3Cl)cc2n1O [Example 61, 4-nitrobenzyl 6-(2,4-dichlorophenyl)-1-hydroxy-4-(trifluoromethyl)-1H-indole-2-carboxylate] | 
 |  |  | 10 to 1000 | O=C(OCc1ccc(F)cc1)c1cc2c(C(F)(F)F)cc(-c3ccc(Cl)cc3Cl)cc2n1O [Example 62, 4-fluorobenzyl 6-(2,4-dichlorophenyl)-1-hydroxy-4-(trifluoromethyl)-1H-indole-2-carboxylate] | 
 |  |  | 10 to 1000 | O=C(OCc1ccc(Cl)cc1)c1cc2c(C(F)(F)F)cc(-c3ccc(Cl)cc3Cl)cc2n1O [Example 63, 4-chlorobenzyl 6-(2,4-dichlorophenyl)-1-hydroxy-4-(trifluoromethyl)-1H-indole-2-carboxylate] | 
 |  |  | 10 to 1000 | O=C(OCc1ccc(C(F)(F)F)cc1)c1cc2c(C(F)(F)F)cc(-c3ccc(Cl)cc3Cl)cc2n1O [Example 64, 4-(trifluoromethyl)benzyl 6-(2,4-dichlorophenyl)-1-hydroxy-4-(trifluoromethyl)-1H-indole-2-carboxylate] | 
